Test results published in US11679110B2, “Methods of treating disorders using CSF1R inhibitors” (Deciphera Pharmaceuticals, LLC, priority 2018, dated 2023).
Like-named read-outs stand apart in the source and are kept apart here. Marks after values point to notes of the source that are not given here.

What was measured:
[1] = dog
in vivo = settings: Sprague-Dawley, rat
intratumoral macrophages = settings: MC38 mice; oral QD; 21 days
[2] = Plasma pharmacokinetics of Compound 1 in patients with advanced solid tumor malignancies and TGCT; type: in vivo, human; settings: for Cmax / AUC(0-t) / Tmax: human, plasma, oral; for Tmax: Median (Min, Max)
Experimental: PK analysis was conducted on all 38 patients. Serial blood samples were collected for PK and took place on either Day −7, Cycle 1, Day 1 (C1D1) and C2D1 at pre-dose, 0.5, 1, 2, 4, 6, 8, 10-12, and 24 hr time points or Day −7, C1D1, C1D8, and C2D1 at pre-dose, 1, 2, 4, 6, and 8 hr time points, or C1D1, C1D8, and C2D1 at pre-dose, 1, 2, 4, 6, and 8 hr time points. High fat meal was given prior to dosing of Compound 1 on Day −7. PD effects were measured by two methodologies: 1) depletion of CSF1R-expressing monocytes in peripheral blood (Cohorts 1-7) from C1D1, C1D15 and C2D1; and 2) increase of plasma levels of CSF1 and IL-34, the ligands for CSF1R (Cohorts 1-7) on C1D1, C1D15, and C2D1. For the CD16^+ monocyte assay, whole blood collected in an EDTA vacutainer was aliquoted into tubes and incubated with fluorescently-labeled antibodies (CD14-Alexa488 (BD Pharmingen); CD16-PE-Cy7 (BD Pharmingen); and TIE2-APC (R&D Systems). After incubation, red blood cells were lysed, and the remaining cells were washed several times before being analyzed on a flow cytometer. For the plasma CSF1 assay or IL-34, whole blood collected in an EDTA vacutainer was centrifuged, and the plasma was collected and frozen. Plasma levels of CSF1 or IL-34 were measured using a commercial ELISA kit (R&D Systems).
Cohort 1 had daily dosing.

For `Cc1nc(-c2cnc(NC(C)C)n(C)c2=O)ccc1Oc1ccnc(-c2cnn(C)c2)c1` [Compound 1, 2-(isopropylamino)-3-methyl-5-(6-methyl-5-((2-(1-methyl-1H-pyrazol-4-yl)pyridin-4-yl)oxy)pyridin-2-yl)pyrimidin-4(3H)-one], the NOAEL at 4 weeks ([1]; beagle, in vivo) was 7.5 mg/kg/day, the “hepatocellular injury in microscopic histology exams” value ([1]; 4-week) was “not evident” and the AST activity ([1]; 4-week, ≥2.5 mg/kg/day) was “minimally to mildly increased”. For the same molecule, the “ALT and GLDH activity” value ([1]; 4-week, ≥7.5 mg/kg/day) was “minimally increased”, the NOAEL at 13 weeks (in vivo) was 1.88 mg/kg/day and the “reduction in intratumoral macrophages compared to vehicle or isotype controls (as a percent of all cells in the tumor)” value (intratumoral macrophages) was over 80%. For the same molecule, the Ctrough ([2]; Cohort 1 10 mg QD, C1D8, Geo Mean) was 331 ng/mL, the Ctrough ([2]; Cohort 1 10 mg QD, C2D1, Geo Mean) was 447^c ng/mL and the Ctrough ([2]; Cohort 2 10 mg QD x 5 d, BIW maintenance dose, C1D8, Geo Mean) was 184 ng/mL. The Ctrough ([2]; Cohort 2 10 mg QD x 5 d, BIW maintenance dose, C2D1, Geo Mean) was 122 ng/mL, the AUC0-8 ([2]; Cohort 2 10 mg Twice Weekly after 5-day QD loading dose, C2D1, GM (CV %)) was 1030 (63) hr*ng/mL and the Ctrough ([2]; Cohort 3 20 mg QD x 5 d, QW maintenance dose, C1D8, Geo Mean) was 850 ng/mL. For the same molecule, the Ctrough ([2]; Cohort 3 20 mg QD x 5 d, QW maintenance dose, C2D1, Geo Mean) was 205 ng/mL, the AUC0-8 ([2]; Cohort 3 20 mg Weekly after 5-day QD loading dose, C2D1, GM (CV %)) was 3380 ng·h/mL and the Ctrough ([2]; Cohort 4 20 mg QD x 5 d, BIW maintenance dose, C1D8, Geo Mean) was 483 ng/mL. The Ctrough ([2]; Cohort 4 20 mg QD x 5 d, BIW maintenance dose, C2D1, Geo Mean) was 441 ng/mL, the AUC0-8 ([2]; Cohort 4 20 mg Twice Weekly after 5-day QD loading dose, C2D1, GM (CV %)) was 4300 (2.82) hr*ng/mL and the Ctrough ([2]; Cohort 5 30 mg QD x 5 d, BIW maintenance dose, C1D8, Geo Mean) was 1020 ng/mL. The Ctrough ([2]; Cohort 5 30 mg QD x 5 d, BIW maintenance dose, C2D1, Geo Mean) was 574 ng/mL, the AUC0-8 ([2]; Cohort 5 30 mg Twice Weekly after 5-day QD loading dose, C2D1, GM (CV %)) was 4750 (53.2) hr*ng/mL and the Ctrough ([2]; Cohort 6 30 mg QD x 5 d, BIW maintenance dose (so in the source), C2D1, Geo Mean) was 570 ng/mL. For the same molecule, the AUC0-8 ([2]; Cohort 6 40 mg Twice Weekly after 5-day QD loading dose, C2D1, GM (CV %)) was 7290 (28.1) hr*ng/mL, the AUC0-8 ([2]; Cohort 7 20 mg QD after 3-day 50 mg QD loading dose, C2D1, GM (CV %)) was 5580 (86.8) hr*ng/mL and the Ctrough ([2]; Cohort 7 50 mg QD x 3 d, QD maintenance dose, C2D1, Geo Mean) was 1040 ng/mL. The Cmax ([2]; 10 mg, Cohort 1 10 mg QD, C1D1, GM (CV %)) was 155 ng/mL, the AUC(0-t) ([2]; 10 mg, Cohort 1 10 mg QD, C1D1, GM (CV %), read-out: AUC0-8) was 770 ng·h/mL and the Cmax ([2]; 10 mg, Cohort 1 10 mg QD, C1D1, Geo Mean) was 155 ng/mL. For the same molecule, the AUC(0-t) ([2]; 10 mg, Cohort 1 10 mg QD, C1D1, Geo Mean, read-out: AUC0-8 h) was 770 ng·h/mL, the Tmax ([2]; 10 mg, Cohort 1 10 mg QD, C1D1) was 1 h and the Cmax ([2]; 10 mg, Cohort 1 10 mg QD, C2D1, GM (CV %)) was 767 ng/mL. The AUC(0-t) ([2]; 10 mg, Cohort 1 10 mg QD, C2D1, GM (CV %), read-out: AUC0-8) was 4510 ng·h/mL, the Cmax ([2]; 10 mg, Cohort 1 10 mg QD, C2D1, Geo Mean) was 767 ng/mL and the AUC(0-t) ([2]; 10 mg, Cohort 1 10 mg QD, C2D1, Geo Mean, read-out: AUC0-8 h) was 4470 ng·h/mL. For the same molecule, the Tmax ([2]; 10 mg, Cohort 1 10 mg QD, C2D1) was 0.5 h, the Cmax ([2]; 10 mg, Cohort 1 10 mg QD, Day -7, Geo Mean) was 75.9 ng/mL and the AUC(0-t) ([2]; 10 mg, Cohort 1 10 mg QD, Day -7, Geo Mean, read-out: AUC0-8 h) was 429 ng·h/mL. For the same molecule, the Cmax ([2]; 10 mg, Cohort 1 10 mg QD, Day-7, GM (CV %)) was 75.9 ng/mL, the AUC(0-t) ([2]; 10 mg, Cohort 1 10 mg QD, Day-7, GM (CV %), read-out: AUC0-8) was 425 ng·h/mL and the Cmax ([2]; 10 mg, Cohort 2 10 mg QD x 5 d, BIW maintenance dose, C1D1, Geo Mean) was 168 ng/mL. The AUC(0-t) ([2]; 10 mg, Cohort 2 10 mg QD x 5 d, BIW maintenance dose, C1D1, Geo Mean, read-out: AUC0-8 h) was 1080 ng·h/mL, the Cmax ([2]; 10 mg, Cohort 2 10 mg QD x 5 d, BIW maintenance dose, C1D8, Geo Mean) was 248 ng/mL and the AUC(0-t) ([2]; 10 mg, Cohort 2 10 mg QD x 5 d, BIW maintenance dose, C1D8, Geo Mean, read-out: AUC0-8 h) was 1730 ng·h/mL. The Cmax ([2]; 10 mg, Cohort 2 10 mg QD x 5 d, BIW maintenance dose, C2D1, Geo Mean) was 149 ng/mL, the AUC(0-t) ([2]; 10 mg, Cohort 2 10 mg QD x 5 d, BIW maintenance dose, C2D1, Geo Mean, read-out: AUC0-8 h) was 1030 ng·h/mL and the Cmax ([2]; 10 mg, Cohort 2 10 mg QD x 5 d, BIW maintenance dose, Day -7, Geo Mean) was 119 ng/mL. It also gave an AUC(0-t) ([2]; 10 mg, Cohort 2 10 mg QD x 5 d, BIW maintenance dose, Day -7, Geo Mean, read-out: AUC0-8 h) of 781 ng·h/mL, a Cmax ([2]; 10 mg, Cohort 2 10 mg Twice Weekly after 5-day QD loading dose, C1D1, GM (CV %)) of 94 ng/mL and an AUC(0-t) ([2]; 10 mg, Cohort 2 10 mg Twice Weekly after 5-day QD loading dose, C1D1, GM (CV %), read-out: AUC0-8) of 467 ng·h/mL. It also gave a Cmax ([2]; 10 mg, Cohort 2 10 mg Twice Weekly after 5-day QD loading dose, C1D8, GM (CV %)) of 248 ng/mL, an AUC(0-t) ([2]; 10 mg, Cohort 2 10 mg Twice Weekly after 5-day QD loading dose, C1D8, GM (CV %), read-out: AUC0-8) of 1730 ng·h/mL and a Tmax ([2]; 10 mg, Cohort 2 10 mg Twice Weekly after 5-day QD loading dose, C1D8) of 1 h. The Cmax ([2]; 10 mg, Cohort 2 10 mg Twice Weekly after 5-day QD loading dose, C2D1, GM (CV %)) was 149 ng/mL, the AUC(0-t) ([2]; 10 mg, Cohort 2 10 mg Twice Weekly after 5-day QD loading dose, C2D1, GM (CV %), read-out: AUC0-8) was 1030 ng·h/mL and the Tmax ([2]; 10 mg, Cohort 2 10 mg Twice Weekly after 5-day QD loading dose, C2D1) was 1 h. The Cmax ([2]; 10 mg, Cohort 2 10 mg Twice Weekly after 5-day QD loading dose, Day-7, GM (CV %)) was 80.2 ng/mL, the AUC(0-t) ([2]; 10 mg, Cohort 2 10 mg Twice Weekly after 5-day QD loading dose, Day-7, GM (CV %), read-out: AUC0-8) was 353 ng·h/mL and the Cmax ([2]; 20 mg, Cohort 3 20 mg QD x 5 d, QW maintenance dose, C1D1, Geo Mean) was 466 ng/mL. The AUC(0-t) ([2]; 20 mg, Cohort 3 20 mg QD x 5 d, QW maintenance dose, C1D1, Geo Mean, read-out: AUC0-8 h) was 2510 ng·h/mL, the Cmax ([2]; 20 mg, Cohort 3 20 mg QD x 5 d, QW maintenance dose, C1D8, Geo Mean) was 1160 ng/mL and the AUC(0-t) ([2]; 20 mg, Cohort 3 20 mg QD x 5 d, QW maintenance dose, C1D8, Geo Mean, read-out: AUC0-8 h) was 7410 ng·h/mL. It also gave a Cmax ([2]; 20 mg, Cohort 3 20 mg QD x 5 d, QW maintenance dose, C2D1, Geo Mean) of 530 ng/mL, an AUC(0-t) ([2]; 20 mg, Cohort 3 20 mg QD x 5 d, QW maintenance dose, C2D1, Geo Mean, read-out: AUC0-8 h) of 3380 ng·h/mL and a Cmax ([2]; 20 mg, Cohort 3 20 mg QD x 5 d, QW maintenance dose, Day -7, Geo Mean) of 242 ng/mL. The AUC(0-t) ([2]; 20 mg, Cohort 3 20 mg QD x 5 d, QW maintenance dose, Day -7, Geo Mean, read-out: AUC0-8 h) was 1320 ng·h/mL, the Cmax ([2]; 20 mg, Cohort 3 20 mg Weekly after 5-day QD loading dose, C1D1, GM (CV %)) was 466 ng/mL and the AUC(0-t) ([2]; 20 mg, Cohort 3 20 mg Weekly after 5-day QD loading dose, C1D1, GM (CV %), read-out: AUC0-8) was 2510 ng·h/mL. It also gave a Tmax ([2]; 20 mg, Cohort 3 20 mg Weekly after 5-day QD loading dose, C1D1) of 1 h, a Cmax ([2]; 20 mg, Cohort 3 20 mg Weekly after 5-day QD loading dose, C1D8, GM (CV %)) of 1160 ng/mL and an AUC(0-t) ([2]; 20 mg, Cohort 3 20 mg Weekly after 5-day QD loading dose, C1D8, GM (CV %), read-out: AUC0-8) of 7290 ng·h/mL. For the same molecule, the Tmax ([2]; 20 mg, Cohort 3 20 mg Weekly after 5-day QD loading dose, C1D8) was 1 h.
